Data on twelve molecules can be found in ChEMBL document CHEMBL1201862, “PubChem BioAssay data set” (2004).

The nature of test [1]: Luminescence-based cell-based high throughput dose response assay to identify activators of the DAF-12 from the parasite S. stercoralis (ssDAF-12). Format: functional.
The target in test [2] is T1, Oxysterols receptor LXR-beta (Homo sapiens, UniProt P55055).
T1 sequence (P55055 whole entry): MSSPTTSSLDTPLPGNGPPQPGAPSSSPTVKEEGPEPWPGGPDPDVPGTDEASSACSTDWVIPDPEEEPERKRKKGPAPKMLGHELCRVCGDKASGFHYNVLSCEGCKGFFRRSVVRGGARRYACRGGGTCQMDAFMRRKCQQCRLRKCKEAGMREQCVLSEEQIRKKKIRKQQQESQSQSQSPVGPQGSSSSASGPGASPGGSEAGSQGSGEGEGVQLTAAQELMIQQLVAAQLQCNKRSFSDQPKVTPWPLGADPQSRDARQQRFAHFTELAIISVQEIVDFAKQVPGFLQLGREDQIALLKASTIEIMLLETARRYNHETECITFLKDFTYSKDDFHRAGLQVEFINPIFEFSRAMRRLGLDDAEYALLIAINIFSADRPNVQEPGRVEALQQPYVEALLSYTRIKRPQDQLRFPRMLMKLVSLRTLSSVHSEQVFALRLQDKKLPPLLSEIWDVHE
The experiment in a line: LXR agonists, Gal4 luciferase reporter, dose response, counter-screen for ssDAF-12 agonist project, cell-based, luminescence, HEK293, S. stercoralis campaign (AID 720737). Format: functional. Particulars: read-out: IC50 (the source's name). A general note: Reporter assays use an easily measured gene product as a stand-in for the process of interest.

Test [3] has as its target T2, Fatty acid synthase (Homo sapiens, UniProt P49327). The experiment in a line: FAS thioesterase domain inhibitors, dose response, biochemical, kinetic fluorescence intensity (AID 624326).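 Also: rate of fluorescence rise from hydrolysis of a fluorogenic O-methyl fluorescein ester substrate.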 The test is classed as functional.
Test [4] concerns the target T2, Fatty acid synthase. Kind of test: FAS thioesterase domain inhibitors, dose response, biochemical, endpoint fluorescence intensity, uHTS hits (AID 624327).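 Also: fluorescence from hydrolysis of an O-methyl fluorescein acyl ester substrate by the enzyme.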 The test is classed as functional.
A short description of test [5]: THP-1 cell cytotoxicity, dose response, cytotoxicity control for Vif-APOBEC3G degradation inhibitor project, THP-1 cells (AID 1117359). Format: functional. To be noted: Human immunodeficiency virus 1, THP-1.
Test [6] concerns the target T3, Interleukin-8 (Homo sapiens, UniProt P10145).
T3 sequence (P10145 whole entry): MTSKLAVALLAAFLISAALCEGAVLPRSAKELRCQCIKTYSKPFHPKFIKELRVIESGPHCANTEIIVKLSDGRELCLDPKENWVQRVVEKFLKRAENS
The experiment in a line: Dose Response confirmation of uHTS small molecule hits for cystic fibrosis induced NFkb Inhibitors in a PAF-induced IL8 counterscreen. The test is classed as functional. Particulars: read-out: IC50_Mean. (The purpose of a counterscreen is to sort out artefacts and off-target activity.)

In test [7] the target is T3, Interleukin-8. Kind of test: Dose Response confirmation of uHTS small molecule hits for cystic fibrosis induced NFkb Inhibitors in a TNFa-induced IL8 counterscreen. The test is classed as functional. To be noted: read-out: IC50_Mean.
The nature of test [8]: P. falciparum Dd2 growth inhibitors, dose response, SYBR Green, cherry-picked samples (AID 1159567). Format: functional, cell-based.
A short description of test [9]: HepG2 cell cytotoxicity, dose response, cytotoxicity control, cherry-picked samples (AID 1159577). The test is classed as functional, cell-based.
Test [10] is described as follows: HeLa cell cytotoxicity, dose response, cytotoxicity control for MgcRacGAP inhibitor project (AID 624300). The test is classed as functional.
Test [11] has as its target T4, Rac GTPase-activating protein 1 (Homo sapiens, UniProt Q9H0H5).
T4 sequence (Q9H0H5 whole entry): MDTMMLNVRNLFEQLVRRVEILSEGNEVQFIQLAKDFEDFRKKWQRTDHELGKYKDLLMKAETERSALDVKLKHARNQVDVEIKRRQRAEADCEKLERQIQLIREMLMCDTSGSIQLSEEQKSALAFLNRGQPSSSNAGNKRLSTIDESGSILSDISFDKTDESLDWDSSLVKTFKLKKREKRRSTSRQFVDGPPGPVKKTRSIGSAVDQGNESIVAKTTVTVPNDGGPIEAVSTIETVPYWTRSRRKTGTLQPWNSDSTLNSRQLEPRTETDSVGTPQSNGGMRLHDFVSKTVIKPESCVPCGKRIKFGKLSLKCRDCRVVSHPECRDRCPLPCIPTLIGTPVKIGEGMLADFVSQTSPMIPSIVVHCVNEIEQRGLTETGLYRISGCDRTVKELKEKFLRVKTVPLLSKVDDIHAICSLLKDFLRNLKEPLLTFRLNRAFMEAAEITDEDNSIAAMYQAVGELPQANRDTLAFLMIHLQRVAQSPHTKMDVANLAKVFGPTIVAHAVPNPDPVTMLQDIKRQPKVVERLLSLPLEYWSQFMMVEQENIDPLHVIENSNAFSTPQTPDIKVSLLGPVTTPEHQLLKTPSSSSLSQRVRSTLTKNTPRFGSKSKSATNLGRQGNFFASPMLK
Kind of test: MgcRacGAP GTPase-activating activity inhibitors, confirmation, biochemical, ADP Hunter fluorescence, primary and confirmatory (AID 624330). Format: functional.

The target in a further test is T5, Protein Tat (Human immunodeficiency virus type 1 group M subtype B (isolate HXB2)(HIV-1), UniProt P04608).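 Also: tat binding to TAR RNA read out by fluorescence polarization.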
T5 sequence (P04608 whole entry): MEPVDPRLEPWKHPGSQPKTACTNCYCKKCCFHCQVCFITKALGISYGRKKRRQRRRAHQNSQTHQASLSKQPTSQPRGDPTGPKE
Format: functional.

The nature of test [12]: human group III sPLA2 inhibitors, dose response, biochemical, QFRET, IC50 (AID 743457).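 Also: green fluorescence rise as the enzyme cleaves BODIPY PC-A2 in liposomes; potency for inhibition of the enzyme.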
Test [13] can be described thus: MC4R antagonists, dose response, counter-screen for LGR2 antagonist project, cell-based, plate reader, cherry pick (AID 743444).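 Also: transfected HEK 293 cells stimulated with alpha-MSH peptide; potency of inhibitors of the alpha-MSH evoked signal.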 The test is classed as functional.
Test [14] is described as follows: P. falciparum Dd2 growth inhibitors, dose response, SYBR Green, dry powder samples (AID 1159566).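 Also: potency for growth inhibition with lower SYBR green DNA signal.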 Format: functional, cell-based.
A short description of test [15]: P. falciparum ATP4 D1247Y mutant growth inhibitors, dose response, NITD609-resistant line, SYBR Green, dry powder (AID 1159571).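 Also: parasites synchronized at ring stage by sorbitol before testing.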 Format: functional, cell-based.
A short description of test [16]: cytotoxicity in OVCAR8 ovarian cancer cells, dose response, PAX8 project, cell-based, plate reader, dry powder samples (AID 743197). The test is classed as functional. Particulars: OVCAR-8.
The target of a further test is Paired box protein Pax-8 (Homo sapiens, UniProt Q06710). Kind of test: inhibitors of PAX8-driven TPO luciferase reporter, dose response, RMG-I cells, cherry-pick (AID 687027).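 Also: luciferase reporter driven by Pax8 target thyroperoxidase promoter measured by SteadyGlo luminescence.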 The test is classed as functional, cell-based.
A short description of test [17]: HepG2 cell cytotoxicity, dose response, cytotoxicity control, plate reader, cherry-pick, antagonist series (AID 743416). Format: functional, cell-based.
Test [18] in a line: HepG2 cell cytotoxicity, dose response, cytotoxicity control, plate reader, dry powder samples (AID 1159569).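 Also: inhibitor potency with signal falling toward the positive control level.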 The test is classed as functional, cell-based.
Test [19] can be described thus: LGR2 antagonists, dose response, cell-based, HEK293, CRE-luciferase reporter, cherry pick, set 2 (AID 743343).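 Also: transfected cells were stimulated with diluted bursicon conditioned medium after compound addition.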 The test is classed as functional.
Test [20] in a line: A549 cell cytotoxicity, dose response, cytotoxicity control, plate reader, cherry-pick, antagonist series (AID 743412). Format: functional, cell-based.
The nature of test [21]: P. falciparum 3D7-ScDHODH growth inhibitors, dose response, SYBR Green, dry powder samples (AID 1159570).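 Also: parasite growth measured after 72 hours of compound exposure.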 The test is classed as functional, cell-based.
Test [22] deals with Photoreceptor-specific nuclear receptor (Homo sapiens, UniProt Q9Y5X4). Format: functional, cell-based.
The subject of a further test is Vero. The experiment in a line: host cell cytotoxicity of antiviral hits, dose response, cytotoxicity control for West Nile virus antiviral project, secondary assay (AID 1650). To be noted: Chlorocebus sabaeus. Format: functional.

Calls of active or inactive are those of the source.

T2 sequence (P49327 whole entry, the tested form may be a part): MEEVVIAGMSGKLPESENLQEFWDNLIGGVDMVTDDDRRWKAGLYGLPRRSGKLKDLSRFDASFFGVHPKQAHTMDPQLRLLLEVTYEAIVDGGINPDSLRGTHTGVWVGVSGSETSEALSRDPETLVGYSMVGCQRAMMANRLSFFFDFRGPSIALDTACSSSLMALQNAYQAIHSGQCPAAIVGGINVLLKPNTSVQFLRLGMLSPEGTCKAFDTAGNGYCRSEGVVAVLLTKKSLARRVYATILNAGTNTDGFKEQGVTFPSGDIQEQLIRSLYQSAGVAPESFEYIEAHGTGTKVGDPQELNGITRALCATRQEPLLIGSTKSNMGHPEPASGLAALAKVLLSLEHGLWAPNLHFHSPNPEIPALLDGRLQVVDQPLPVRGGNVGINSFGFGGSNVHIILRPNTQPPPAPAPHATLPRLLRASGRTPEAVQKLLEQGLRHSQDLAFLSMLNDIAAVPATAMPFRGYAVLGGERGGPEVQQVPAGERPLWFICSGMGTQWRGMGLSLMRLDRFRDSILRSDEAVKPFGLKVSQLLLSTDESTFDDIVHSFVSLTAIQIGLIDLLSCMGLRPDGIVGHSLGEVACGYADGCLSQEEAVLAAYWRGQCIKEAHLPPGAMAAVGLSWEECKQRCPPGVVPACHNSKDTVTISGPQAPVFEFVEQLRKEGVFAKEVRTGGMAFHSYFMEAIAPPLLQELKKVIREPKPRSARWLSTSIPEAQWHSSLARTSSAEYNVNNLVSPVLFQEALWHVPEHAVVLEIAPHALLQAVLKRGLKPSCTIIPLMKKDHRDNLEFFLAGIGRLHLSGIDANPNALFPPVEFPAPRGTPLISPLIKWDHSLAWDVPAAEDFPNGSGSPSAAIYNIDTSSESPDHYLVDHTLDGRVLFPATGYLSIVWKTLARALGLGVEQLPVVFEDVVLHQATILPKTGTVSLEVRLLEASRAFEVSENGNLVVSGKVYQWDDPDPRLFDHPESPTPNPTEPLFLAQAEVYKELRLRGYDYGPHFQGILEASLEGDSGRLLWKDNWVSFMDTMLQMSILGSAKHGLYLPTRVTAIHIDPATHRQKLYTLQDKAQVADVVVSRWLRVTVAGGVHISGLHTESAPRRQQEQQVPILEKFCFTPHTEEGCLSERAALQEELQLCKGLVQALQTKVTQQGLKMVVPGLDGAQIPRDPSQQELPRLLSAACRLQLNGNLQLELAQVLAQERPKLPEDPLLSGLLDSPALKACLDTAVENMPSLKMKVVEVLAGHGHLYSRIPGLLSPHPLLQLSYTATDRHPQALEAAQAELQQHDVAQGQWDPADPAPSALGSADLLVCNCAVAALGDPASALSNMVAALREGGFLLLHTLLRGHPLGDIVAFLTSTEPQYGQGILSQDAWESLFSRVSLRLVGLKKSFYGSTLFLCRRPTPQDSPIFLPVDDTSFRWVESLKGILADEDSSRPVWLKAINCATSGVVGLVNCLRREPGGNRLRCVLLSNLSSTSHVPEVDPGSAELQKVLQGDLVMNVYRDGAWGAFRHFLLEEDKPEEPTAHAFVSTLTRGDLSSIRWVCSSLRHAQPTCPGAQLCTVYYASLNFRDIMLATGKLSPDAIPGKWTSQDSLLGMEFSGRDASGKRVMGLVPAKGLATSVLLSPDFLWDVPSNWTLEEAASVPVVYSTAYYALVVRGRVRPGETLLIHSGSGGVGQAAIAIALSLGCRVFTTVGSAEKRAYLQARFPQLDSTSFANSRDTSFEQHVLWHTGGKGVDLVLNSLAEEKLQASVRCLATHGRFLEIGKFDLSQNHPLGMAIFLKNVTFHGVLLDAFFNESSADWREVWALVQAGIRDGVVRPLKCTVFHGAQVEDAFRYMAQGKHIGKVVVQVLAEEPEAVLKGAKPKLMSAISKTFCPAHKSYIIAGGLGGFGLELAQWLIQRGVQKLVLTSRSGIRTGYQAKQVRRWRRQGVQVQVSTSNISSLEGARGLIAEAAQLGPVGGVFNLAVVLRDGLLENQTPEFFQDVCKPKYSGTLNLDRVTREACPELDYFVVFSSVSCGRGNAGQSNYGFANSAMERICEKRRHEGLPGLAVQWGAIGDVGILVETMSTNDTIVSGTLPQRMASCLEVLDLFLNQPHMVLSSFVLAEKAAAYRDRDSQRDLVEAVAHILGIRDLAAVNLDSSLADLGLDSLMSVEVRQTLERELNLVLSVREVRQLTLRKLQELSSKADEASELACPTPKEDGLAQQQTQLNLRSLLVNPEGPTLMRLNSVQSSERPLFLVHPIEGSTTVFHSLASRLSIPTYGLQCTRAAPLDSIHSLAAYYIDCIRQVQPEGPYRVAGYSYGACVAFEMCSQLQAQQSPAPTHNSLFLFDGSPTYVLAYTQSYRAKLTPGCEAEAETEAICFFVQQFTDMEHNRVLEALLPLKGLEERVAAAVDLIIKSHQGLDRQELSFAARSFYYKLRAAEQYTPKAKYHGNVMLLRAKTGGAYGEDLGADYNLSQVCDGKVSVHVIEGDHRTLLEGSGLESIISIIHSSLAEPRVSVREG
Photoreceptor-specific nuclear receptor, sequence (Q9Y5X4 whole entry): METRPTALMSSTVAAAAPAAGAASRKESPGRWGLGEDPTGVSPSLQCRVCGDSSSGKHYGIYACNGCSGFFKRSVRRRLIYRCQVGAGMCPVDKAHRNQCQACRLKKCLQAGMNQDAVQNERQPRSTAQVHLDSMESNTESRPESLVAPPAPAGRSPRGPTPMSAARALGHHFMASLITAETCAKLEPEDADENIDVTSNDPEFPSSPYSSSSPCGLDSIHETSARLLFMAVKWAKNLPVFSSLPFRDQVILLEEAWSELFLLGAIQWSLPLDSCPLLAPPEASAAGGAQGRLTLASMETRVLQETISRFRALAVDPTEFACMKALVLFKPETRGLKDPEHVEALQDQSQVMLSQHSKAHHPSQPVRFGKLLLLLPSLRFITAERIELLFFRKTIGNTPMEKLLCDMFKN
Paired box protein Pax-8, sequence (Q06710 whole entry): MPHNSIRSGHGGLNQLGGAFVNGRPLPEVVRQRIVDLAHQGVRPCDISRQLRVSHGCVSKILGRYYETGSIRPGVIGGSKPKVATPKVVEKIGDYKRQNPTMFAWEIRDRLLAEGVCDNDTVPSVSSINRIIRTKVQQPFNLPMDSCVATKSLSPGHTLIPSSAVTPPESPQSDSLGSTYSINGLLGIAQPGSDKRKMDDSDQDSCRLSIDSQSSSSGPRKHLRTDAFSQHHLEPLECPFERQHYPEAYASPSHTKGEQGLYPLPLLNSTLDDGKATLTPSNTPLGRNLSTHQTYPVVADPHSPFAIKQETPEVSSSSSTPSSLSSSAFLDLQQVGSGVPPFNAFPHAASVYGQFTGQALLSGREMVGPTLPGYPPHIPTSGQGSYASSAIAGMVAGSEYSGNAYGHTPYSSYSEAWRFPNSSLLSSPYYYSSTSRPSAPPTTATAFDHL

On to `CCOc1ccc(-c2noc(COC)n2)cc1OC`, for which the IC50 in [1] was > 67.5 µM (inactive). For the same molecule, the EC50 in [2] is > 67.5 µM (inactive).
As to `CCOC(=O)C1CCN(C(=O)COc2ccc([N+](=O)[O-])cc2)CC1`, the IC50 was 9.05 µM (active) on Fatty acid synthase [3] and 9.85 µM (active) at Fatty acid synthase [4].
For the molecule `O=S(=O)(Nc1ccc2[nH]c(O)nc2c1)c1ccc(F)c(Cl)c1`, the CC50 – broadly, the concentration giving 50% cytotoxicity – in [5] was > 40 µM (active).
In the case of `Cc1ccc(/N=C/c2cc3c(cc2O)OC(N)=C(C#N)C3c2ccccc2)cc1` (stereo not given), the IC50 was 5.76 µM (active) at Interleukin-8 [6] and > 79 µM (inactive) at Interleukin-8 [7].
As to `COc1cccc(C#Cc2ccc([C@@H]3[C@@H](CO)N(C(=O)C4CCCC4)[C@H]3C#N)cc2)c1`, the concentration at half-maximal activity (AC50) (usually the midpoint of the concentration-response curve, whichever way the signal moves) in test [8] was 4.4 µM (active); in test [9], > 39 µM (inactive).
Turning to `COc1cc2c(cc1NC(=O)C(Cl)Cl)-c1ccc(NC(=O)C(Cl)Cl)cc1C2`, the CC50 in test [10] is 10.3 µM (active). Further, the IC50 in test [11] was 58.4 µM (active).
With `COc1ccccc1/C=C(/CC(=O)NCc1ccccc1)c1nc2ccccc2s1`, the IC50 at Protein Tat is > 100 µM (active).
Consider `N=C(N)SCc1ccc(Cl)c2ccccc12`, for which, in test [12], the IC50 is > 122 µM (inactive).
As for `COc1cccc(C(=O)Oc2cc3c4c(c2)C(C)=CC(C)(C)N4C(=O)C3=O)c1`, in [12], the IC50 was 43.2 µM (inactive).
On to `C[C@@H]1CN([C@H](C)CO)C(=O)c2c(c3ccccc3n2C)-c2ccccc2CO[C@@H]1CN(C)S(=O)(=O)c1ccc(C(F)(F)F)cc1`, for which the AC50 in [13] is 35.3 µM (active); in test [14], 1.76 µM (active); in test [15] it was 2.62 µM (active); in test [16], > 70 µM (inactive); at Paired box protein Pax-8, 5.24 µM (active); in test [17], 17.7 µM (active). Besides, the concentration at half-maximal activity (AC50) in test [18] is 15.1 µM (active); in test [8] it was 2.41 µM (active); in test [9], > 42 µM (inactive); in test [19] it was 25.9 µM (active); in test [20] it was 19.4 µM (active); in test [21], 3.33 µM (active).
Turning to `CCC1(O)C(=O)OCc2c1cc1n(c2=O)Cc2cc3cc(O)ccc3nc2-1` (stereo not given), the IC50 on Interleukin-8 [6] was 3 µM (active); in [22] it was 4.21 µM (active); on Interleukin-8 [7], 40.5 µM (inactive).
As to `CCc1ccc(-c2nc(CN3CCC(C(=O)N4CCN(c5ccccc5)CC4)CC3)c(C)o2)cc1`, the half-maximal cytotoxic concentration (CC50) in the test with Vero was 16.3 µM (active).
